Laboratory results: PubChem BioAssay (NCI)
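These data come from cells grown in 96-well plates and exposed to compound for 48 hours at five concentrations. At the GI50, growth is halved. TGI is the concentration that stops growth completely.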

How the values were obtained:
Assay in all cases: inhibition of tumour cell growth, NCI panel, 48 h
[1] = tested on: BT-549 breast
[2] = tested on: SK-MEL-2 melanoma
[3] = tested on: NCI-H226 lung
[4] = tested on: LOX IMVI melanoma
[5] = tested on: HOP-62 NSCLC
[6] = tested on: HCC-2998 colon
[7] = tested on: M14 melanoma
[8] = tested on: MOLT-4 leukemia
[9] = tested on: SK-MEL-28 melanoma
[10] = tested on: SF-539 CNS
[11] = tested on: CAKI-1 renal
[12] = tested on: IGROV1 ovarian
[13] = tested on: NCI/ADR-RES ovarian
[14] = tested on: SF-295 CNS

Structure (SMILES) | TGI [1] [µM] | TGI [2] [µM] | TGI [3] [µM] | TGI [4] [µM] | TGI [5] [µM] | TGI [6] [µM] | TGI [7] [µM] | TGI [8] [µM] | TGI [9] [µM] | TGI [10] [µM] | TGI [11] [µM] | TGI [12] [µM] | TGI [13] [µM] | TGI [14] [µM] | GI50 [7] [µM]
CCC(=O)NC(NNS(=O)(=O)c1ccc(C)cc1)(C(F)(F)F)C(F)(F)F | 91.8 | > 100 | > 100 | > 100 | > 100 | > 10 | > 100 | > 100 | 61.5 | > 100 | > 100 | > 100 | 85.2 | > 100 | –
COc1ccc(-c2c(C#N)c(N)nc(Sc3ccccc3N)c2C#N)cc1 | > 100 | 39.7 | > 100 | > 100 | 32.6 | > 100 | > 100 | > 100 | > 100 | 56.9 | > 65.9 | > 56.8 | 98.4 | 56.6 | –
CSCCCNC(=O)c1csc(-c2csc(CCNC(=O)CNC(=O)OC(C)(C)C)n2)n1 | > 100 | > 100 | > 100 | > 100 | > 100 | > 100 | > 100 | > 100 | > 100 | > 100 | > 100 | > 100 | > 100 | > 100 | –
CCOP(=O)(OCC)/C(C#N)=C/c1cccn1C | > 100 | > 100 | > 100 | > 100 | > 100 | > 100 | > 100 | > 100 | > 100 | > 100 | > 100 | > 100 | > 100 | > 100 | –
NNC(=O)c1cc(Cl)ccc1NC(=O)C12CC3CC(CC(C3)C1)C2 | > 100 | > 100 | > 100 | > 100 | > 100 | 65 | 31.8 | > 100 | > 100 | > 100 | > 100 | > 100 | > 100 | > 100 | –
CCc1cn(C2CC(CO)C(CO)S2)c(=O)[nH]c1=O (stereo not drawn) | > 100 | > 100 | > 100 | > 100 | > 100 | > 100 | > 100 | > 100 | > 100 | > 100 | > 100 | > 100 | > 100 | > 100 | –
CCSc1c2cc(OC)ccc2nc2ccc(OC)cc12 | > 100 | 48.7 | 40.1 | > 76.9 | 53.9 | 25.5 | 33.3 | > 34.5 | > 59.2 | > 100 | 45.4 | > 55 | > 69.7 | 60.4 | –
COc1ccc(/C=N/n2c(Cc3ccccc3)n[nH]c2=O)c(OC)c1 | > 49 | > 100 | > 80.9 | > 85.3 | > 59.8 | > 100 | > 100 | > 100 | > 100 | > 100 | > 100 | > 100 | 86.5 | > 61.4 | –
CC1=NN(c2nc(N)nc(CCl)n2)C(C)(C)C1 | > 82.5 | > 100 | > 100 | 3.35 | 19.1 | 66.1 | > 75.4 | 50 | > 75.8 | 34 | 9.27 | 20.5 | 35 | > 74.5 | –
NC(N)=NS(=O)(=O)c1ccc(NCc2cccc3c(=O)c4ccc(Cl)cc4oc23)cc1 | > 14.4 | > 16.7 | > 25 | > 11.3 | > 18.9 | > 25 | > 16.3 | > 20.1 | > 23.6 | > 13.1 | > 15 | > 11 | > 14 | > 14.9 | –
COc1ccc(/C=C2\CC3C4CC=C5C[C@@H](N6CCCC6)CC[C@]5(C)C4CC[C@]3(C)[C@H]2O)cc1OC (stereo partly drawn) | 16.5 | 14.3 | 20.2 | 18.8 | 12.3 | 11.7 | 16.8 | 38.3 | 20.1 | 15.1 | 16.7 | 21.4 | 19.2 | 11.5 | –
ON[C@@H]1C=C[C@H](n2cnc3c(NC4CC4)ncnc32)C1 | > 100 | > 100 | > 100 | > 100 | > 100 | > 100 | > 100 | > 100 | > 100 | > 100 | > 100 | > 100 | > 100 | > 100 | –
COc1ccc2c(c1)C1Oc3ccccc3CC1CO2 (stereo not drawn) | > 100 | > 100 | > 100 | > 100 | > 100 | 42.7 | > 100 | 52.9 | – | > 100 | > 100 | > 100 | > 100 | > 100 | –
COc1ccccc1OC/C(N=Cc1cccnc1)=N/NC(=O)c1ccncc1 | > 100 | > 100 | > 100 | > 100 | > 100 | > 100 | > 100 | > 100 | > 100 | > 100 | > 100 | > 100 | > 100 | > 100 | –
Cc1cc(NS(=O)(=O)c2ccc(NC(=O)c3ccc4nc5ccccc5c(Nc5ccc(S(N)(=O)=O)cc5)c4c3)cc2)no1 | 67.5 | 73.3 | > 100 | 26.5 | > 100 | > 100 | > 100 | 61.8 | 50.7 | 80.9 | > 100 | > 100 | > 100 | > 100 | –
Cc1ccccc1-n1c(=O)nc2n(-c3ccc(C(C)(C)C)cc3)c3ccccc3cc-2c1=O | 69.6 | 34.8 | 38.2 | 30.3 | 39.7 | 32.4 | 32.4 | 55.1 | 28.7 | 36 | 71.4 | 64.5 | 40.6 | 53.1 | –
COc1cccc(-c2nc(N)c(C#N)c3c2CCS(=O)(=O)c2ccc(C)cc2-3)c1 | > 100 | > 100 | > 100 | > 100 | > 100 | > 100 | > 100 | 87.1 | > 100 | > 100 | > 100 | > 100 | > 88 | > 100 | –
CC(C)(C(=O)N(C(=O)N1CCN(c2ccccc2)CC1)S(=O)(=O)c1ccccc1)c1ccc(Cl)cc1 | > 100 | 53.9 | > 100 | > 100 | > 100 | > 100 | > 100 | 17.6 | > 100 | > 100 | > 100 | – | > 100 | > 100 | –
CC(C)CC1C(=O)OC(C)(C)OC1=O | > 100 | > 100 | > 100 | > 100 | > 100 | > 100 | > 100 | > 100 | > 100 | > 100 | > 100 | > 100 | > 100 | > 100 | –
CCCCCCCCCCCCCCCCNc1nc(=O)n(C2CC(O)C(COP(=O)(O)OC3CC(n4cc(F)c(=O)[nH]c4=O)OC3CO)O2)cc1F (stereo not drawn) | 35.3 | > 63.9 | > 100 | 17.1 | 5.4 | 11 | 16.5 | 17.9 | > 68.7 | 0.956 | > 100 | > 59.9 | 46 | 18.9 | –
N=c1oc2ccccc2cc1C(=O)Nc1ccccn1 | > 100 | > 100 | > 100 | > 100 | > 100 | > 100 | > 100 | > 100 | > 100 | > 100 | > 100 | > 100 | > 100 | – | –
CC(Oc1ccc(Cl)cc1Cl)C(=O)NN1C(=O)CC(=O)NC1=S (stereo not drawn) | > 100 | > 100 | > 100 | > 100 | > 100 | > 100 | > 100 | – | > 100 | > 100 | > 100 | > 100 | > 100 | > 100 | –
COC(=O)c1ccc(C)cc1C1CN=NC12Cc1c(C)cccc1C2=O (stereo not drawn) | > 70.1 | 98.3 | > 90.8 | > 70.7 | > 100 | > 100 | > 100 | > 69.6 | > 100 | > 100 | > 100 | 98 | 81.4 | > 100 | 25.9
O=[N+]([O-])/C(C(Cl)=C(Cl)Cl)=C(\NCc1ccccc1)Sc1ccccc1 | 38.7 | 84.7 | 98.3 | 26.6 | 57.1 | > 100 | > 100 | > 100 | 36.8 | 38.9 | > 100 | – | 69.7 | 41 | –
CC1(c2cccc(C(F)(F)F)c2)CC(c2cccc(C(F)(F)F)c2)=C(C#N)C(=C(C#N)C#N)N1 (stereo not drawn) | 40.9 | 41.1 | 58.6 | 34.1 | 32.7 | 31.8 | 37.4 | 38.5 | 33.9 | 34.9 | 33.3 | 30.6 | 43 | 31 | –
CCc1n[nH]c(=O)n1N | > 100 | > 100 | > 100 | > 100 | > 100 | > 100 | > 100 | > 100 | > 100 | > 100 | > 100 | > 100 | > 100 | > 100 | –
CC1CCC2C(C(=O)O[C@H]3C4C=CO[C@@H](OC5OC(CO)C(O)C(O)C5O)C4[C@@]4(CO)O[C@@H]34)=CO[C@@H](OC3OC(CO)C(O)C(O)C3O)C12 (stereo partly drawn) | > 10 | > 10 | > 10 | > 10 | > 10 | > 10 | > 10 | > 10 | > 10 | > 10 | > 10 | > 10 | > 10 | > 10 | –
NC(N)=N/N=C/c1c(Cl)nc2n1CCS2 | > 100 | > 100 | > 100 | > 100 | > 100 | > 100 | > 100 | > 100 | > 100 | > 100 | > 100 | > 100 | > 100 | > 100 | –
